Earlier results on 1 compound are cited in patent US20240285546A1, “TRANSDERMAL THERAPEUTIC SYSTEM CONTAINING AGOMELATINE” (LTS LOHMANN Therapie-Systeme AG, priority 2019, published 2024).

Assay in series [1]: not given
The source holds these as a separate data set.

Where only a bound is given, the exact number is not on record here.

As to `COc1ccc2cccc(CCNC(C)=O)c2c1` [agomelatine, N-(2-(7-Methoxy-1-naphthyl)ethyl)acetamide], the Volume of distribution (in steady state) was 35 L. Under “oral agomelatine”, the Oral absorption is listed as > 80% and the Overall bioavailability entry is reported as “less than 5%”. Further, for the setting “patients with moderate hepatic impairment compared to healthy subjects”, the “Increase in agomelatine exposure (AUC and cmax)” value was “up to 140 fold”. Besides, in series [1], the Solubility in water result is listed as “poorly soluble”.
